Six molecules from patent US20250236607A1, “CYCLIN-DEPENDENT KINASE 9 (CDK9) DEGRADERS AND METHODS OF USING THEREOF” (OHIO STATE INNOVATION FOUNDATION, priority 2022, published 2025) can be followed below.

A short description of one data set: Kinetic solubility assay. The settings on record: kinetic solubility, PBS pH 7.4; for solubility at 1.5 h: phosphate buffered saline, pH 7.4, aqueous buffer, kinetic from dmso stock, Solubility (μM).
Data set [1] deals with T1, CDK9 (Homo sapiens, UniProt P50750+Q96SW2).
T1 construct: endogenous in cells
T1 sequence (P50750 whole entry): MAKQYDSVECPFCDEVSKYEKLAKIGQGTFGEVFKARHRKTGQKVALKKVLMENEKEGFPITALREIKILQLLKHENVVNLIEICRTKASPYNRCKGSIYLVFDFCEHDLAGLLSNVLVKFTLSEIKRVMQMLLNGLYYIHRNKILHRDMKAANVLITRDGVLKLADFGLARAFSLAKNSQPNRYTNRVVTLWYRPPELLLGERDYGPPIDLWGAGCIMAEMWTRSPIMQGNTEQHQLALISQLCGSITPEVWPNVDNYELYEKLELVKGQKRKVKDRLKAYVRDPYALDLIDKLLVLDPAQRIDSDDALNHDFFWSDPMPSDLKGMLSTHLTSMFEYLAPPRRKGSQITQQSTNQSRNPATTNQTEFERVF
T1 sequence (O60563 whole entry partner): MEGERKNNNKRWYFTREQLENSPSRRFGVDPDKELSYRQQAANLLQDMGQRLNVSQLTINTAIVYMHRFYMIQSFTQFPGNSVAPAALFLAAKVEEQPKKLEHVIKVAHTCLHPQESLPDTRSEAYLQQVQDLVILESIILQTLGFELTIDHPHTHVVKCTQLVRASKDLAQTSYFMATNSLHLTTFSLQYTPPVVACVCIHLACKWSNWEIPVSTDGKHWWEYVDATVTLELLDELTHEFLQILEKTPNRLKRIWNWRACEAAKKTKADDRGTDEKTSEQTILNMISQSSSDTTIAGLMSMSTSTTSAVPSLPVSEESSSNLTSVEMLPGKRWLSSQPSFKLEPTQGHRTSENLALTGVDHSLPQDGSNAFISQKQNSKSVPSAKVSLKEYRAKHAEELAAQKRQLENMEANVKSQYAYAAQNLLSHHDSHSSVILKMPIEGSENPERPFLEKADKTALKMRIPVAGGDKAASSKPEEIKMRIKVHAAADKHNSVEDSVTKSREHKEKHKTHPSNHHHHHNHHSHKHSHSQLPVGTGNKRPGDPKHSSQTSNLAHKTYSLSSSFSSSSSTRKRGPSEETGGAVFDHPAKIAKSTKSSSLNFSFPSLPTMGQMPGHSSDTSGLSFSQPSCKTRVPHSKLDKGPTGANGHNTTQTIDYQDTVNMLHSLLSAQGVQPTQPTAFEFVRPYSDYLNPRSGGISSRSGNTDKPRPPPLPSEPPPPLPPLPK
T1 sequence (Q96SW2 whole entry): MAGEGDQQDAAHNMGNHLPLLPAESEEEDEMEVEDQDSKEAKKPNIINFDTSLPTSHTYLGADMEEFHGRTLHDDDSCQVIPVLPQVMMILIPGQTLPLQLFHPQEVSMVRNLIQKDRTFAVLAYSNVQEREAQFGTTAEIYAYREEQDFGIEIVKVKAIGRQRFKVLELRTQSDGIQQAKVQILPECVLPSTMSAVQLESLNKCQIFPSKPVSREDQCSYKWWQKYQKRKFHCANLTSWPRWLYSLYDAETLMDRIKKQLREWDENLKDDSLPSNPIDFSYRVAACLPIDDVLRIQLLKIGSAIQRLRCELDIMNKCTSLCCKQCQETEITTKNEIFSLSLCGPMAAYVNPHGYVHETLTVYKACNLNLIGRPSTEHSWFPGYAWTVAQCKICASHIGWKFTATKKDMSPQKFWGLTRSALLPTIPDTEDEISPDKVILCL
T1 sequence (Q16531 whole entry partner): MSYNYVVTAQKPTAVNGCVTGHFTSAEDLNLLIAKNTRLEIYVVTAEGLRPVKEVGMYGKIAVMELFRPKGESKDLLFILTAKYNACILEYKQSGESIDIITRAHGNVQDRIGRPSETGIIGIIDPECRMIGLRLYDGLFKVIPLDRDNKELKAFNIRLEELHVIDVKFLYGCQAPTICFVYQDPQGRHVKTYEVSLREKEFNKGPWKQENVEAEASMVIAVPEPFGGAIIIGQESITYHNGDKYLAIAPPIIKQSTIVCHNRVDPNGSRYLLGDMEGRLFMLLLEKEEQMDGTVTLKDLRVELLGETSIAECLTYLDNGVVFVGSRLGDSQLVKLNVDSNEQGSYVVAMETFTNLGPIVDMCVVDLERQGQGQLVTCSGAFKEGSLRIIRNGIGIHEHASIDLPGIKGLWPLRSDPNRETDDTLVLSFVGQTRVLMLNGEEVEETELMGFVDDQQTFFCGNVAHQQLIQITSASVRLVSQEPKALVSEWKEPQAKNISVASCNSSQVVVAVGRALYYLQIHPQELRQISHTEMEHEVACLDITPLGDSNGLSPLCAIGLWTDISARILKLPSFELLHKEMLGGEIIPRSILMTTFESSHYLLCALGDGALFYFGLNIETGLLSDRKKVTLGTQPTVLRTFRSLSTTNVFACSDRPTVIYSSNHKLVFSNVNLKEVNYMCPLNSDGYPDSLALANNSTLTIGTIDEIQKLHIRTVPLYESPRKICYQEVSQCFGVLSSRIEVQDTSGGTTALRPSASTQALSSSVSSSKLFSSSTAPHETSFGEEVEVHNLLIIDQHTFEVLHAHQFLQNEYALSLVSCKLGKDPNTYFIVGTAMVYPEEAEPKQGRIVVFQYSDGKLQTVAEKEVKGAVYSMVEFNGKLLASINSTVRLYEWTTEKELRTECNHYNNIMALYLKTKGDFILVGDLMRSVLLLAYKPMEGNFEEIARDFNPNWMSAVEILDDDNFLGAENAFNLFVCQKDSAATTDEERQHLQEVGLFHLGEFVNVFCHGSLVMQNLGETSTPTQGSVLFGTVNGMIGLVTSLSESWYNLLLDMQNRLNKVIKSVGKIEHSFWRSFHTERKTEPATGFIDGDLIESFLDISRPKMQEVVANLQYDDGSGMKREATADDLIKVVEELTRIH
Put plainly: CDK9 degradation, automated western blot, triazole-containing AT7519 degraders (MV411). The format is cell-based. As to conditions: for DC50: CDK9 degradation, MV411 cells; for Dmax: MV4-11, maximum percent CDK9 degradation. Here is the method: (§1) The obtained compounds were tested in biological experiments to measure their potency in inhibiting the growth of AML cells and in their degradation of CDK9. These measurements are reported as half-maximum growth inhibitory and half-maximum degradation concentrations, IC50s and DC50s, respectively. Maximum percent degradation (Dmax) values were also obtained during the CDK9 degradation assessments. The common MTS assay was used to acquire the IC50 values, while the DC50 values were obtained using an automated western blot experiment. These values are presented in Table 2, along with pIC50 (log(nM IC50)) to more accurately reflect the differences/lack thereof in in vitro cytotoxicity. The notation “N:N*” represents the number of linker atoms on each side of the rigid triazole ring for a given degrader. Predicted log D values, calculated using the ChemAxon […], are also provided for each degrader. To characterize the physicochemical properties of the new degrader series, two additional assays were performed: a kinetic aqueous solubility assay and the chromatographic log D experiment described earlier. Aqueous solubility is shown in μM while experimentally determined log D is shown as log k′80. Details regarding the execution of each experiment are provided below.

Data set [2] is described as follows: Chromatographic log D determination (log k′80). The data set is classed as physicochemical. As to conditions: chromatographic log D, PLRP-S column, pH 7.72. How it is done:
Chromatographic Log D Determination. Test samples were prepared from 10 mM stock solutions in DMSO, to make 122 μM solutions in acetonitrile. Retention times were determined on a Shimadzu High Performance Liquid Chromatography (HPLC) system with Agilent PLRP-S column, 100 Å, 5 um particle size, 50×4.6 mm (part no.: PL1512-1500) with 1 mL/min flow rate. A 65 mM aqueous solution of ammonium acetate was prepared in water and diluted with acetonitrile to give 0.1% ammonium acetate 20:80 acetonitrile solution with pH 7.72. Eluents were detected with UV spectrophotometry at 337 nm. As a standard set, the retention times of β-estradiol, nifedipine, quinoline, phenol and 2-nitrophenol were determined (log k′80) and the dead time was extrapolated based on the reported log k′80 values originally reported by Caron et. al (log k′80*). The average value of the dead time for the standard set was 0.3001 minutes. Therefore, for consistency, 0.3 minutes was used as the dead time for all test samples. Experiments were performed in triplicate with a maximum percent standard deviation of 6.85%.

The subject of the next data set is MV411 cells. The data set can be described thus: MTS cytotoxicity assay against MV411 cells. The settings on record: Homo sapiens, MV4-11. The format is cell-based. How it is done:
as §1
(Tetrazolium assays rely on reduction of a dye to a coloured formazan, in cell work by metabolically active cells.)

Data set [3] addresses T1, CDK9. The data set can be described thus: CDK9 degradation potency (DC50) of VIP152-based degraders. The format is cell-based. The settings on record: VIP152-based series. The source says:
(§2) Through amide coupling using I-ethyl-3-carbodiimide hydrochloride (EDC.HCl), the alkynyl derivatives of 4.16, 4.29 and 4.30 were synthesized. Using these VIP152-derivatives, degraders 4.31, 4.33 and 4.34 were synthesized using click chemistry. Degrader 4.32 was also synthesized using amide coupling conditions with (1-[Bis([…])methylene]-1H-1,2,3-triazolo[4,5-b]pyridinium 3-oxide hexafluorophosphate (HATU) and the carboxylic acid 4.28. Scheme 7 illustrates the synthesis of this initial series. The series was evaluated for cytotoxicity against MOLM13 cells (IC50) and for their CDK9 degradation potency (DC50). The results are provided in Table 3.

Data set [4] deals with MOLM13 cells. Put plainly: Cytotoxicity against MOLM13 cells. The data set is classed as cell-based.
Source text: as §2

In data set [5] the test system is MOLM13 cells. The data set can be described thus: Protein shift experiment, cytotoxicity in FBS vs human serum, MOLM13. The format is cell-based. The text has this:
In order to determine the suitability of the lead compounds for advanced biological studies, the four degraders (4.49, 4.62, 4.72 and 4.78) were selected for a protein-shift analysis due to their higher potency and solubility.

The mark [6] stands for this setting: defined as log(nM IC50), MV411, read-out: pIC50 (converted).
Setting [7] is: growth inhibition, MV411 cells, MTS, read-out: IC50.
Where [8] appears, read: Homo sapiens, MOLM-13, cytotoxicity, MOLM13 cells, read-out: IC50.
[9] abbreviates: Homo sapiens, MOLM-13, MOLM13, fetal bovine serum, read-out: IC50 (μM) FBS.
Where [10] appears, read: MOLM-13, MOLM13, human serum, read-out: IC50 (μM) HS.

≈ marks a conversion by molar mass, not a printed value. Where “and” joins values, the source holds several entries; their conditions need not be identical. Identical values can stand only once. Like-named read-outs stand apart in the source and are kept apart here.

Description for Kinetic solubility assay: Kinetic Solubility Assay. Kinetic solubility (KS) was measured according to Millipore protocol PC2445 EN00. Test compounds were weighed and diluted with DMSO to 10 mM. From the stock solutions as well as blank (100% DMSO) was taken 17.5 μL and diluted to 500 μM with 332.5 μL of 100 mM phosphate Buffered Saline (PPBS) at pH 7.4 in a 96-well quartz plate. From the 500 μM solutions was taken 150 μL and dispensed into a 96-well Millipore filter plate (Product number: MSSLBPC10). In the quartz plate, serial dilutions were performed down to 0.5 μM using the 100 mM PBS solution, leaving 100 μL of each test sample at 11 different concentrations, representing standards. These steps were performed in triplicate, at minimum, for each test compound. Both plates were shaken on an orbital shaker at 150 rpm for 1.5 hours. The contents of the filter plate were filtered and 100 μL of the filtrate from each well was dispensed into the quartz plate containing standards. The quartz plate was then analyzed using a UV plate reader where absorbance was measured at the relevant wavelength for each compound. After blank subtraction, for each test sample, solubility was determined based on the optical density of filtered samples and the equations derived from the corresponding linear standard curve.

Usually solubility stands for the concentration that dissolves in the medium under given conditions. A low value points to little dissolved substance. By DC50 is commonly meant the concentration at which degradation of the target reaches its halfway point. Low values mean degradation at low concentration, high ones degradation only at high concentration. The Dmax is the greatest extent of degradation seen. High values mean a fuller loss of target, low ones a partial loss of target. For `O=C1CCC(N2C(=O)c3cccc(OCCCn4cc(CCCCCCN5CCC(NC(=O)c6n[nH]cc6NC(=O)c6c(Cl)cccc6Cl)CC5)nn4)c3C2=O)C(=O)N1` (centres unmarked) [Compound 4.8c, 4-(2,6-dichlorobenzamido)-N-(1-(6-(1-(3-((2(2,6-dioxopiperidin-3-yl)-1,3-dioxoisoindolin-4-yl)oxy)propyl)-1H-1,2,3-triazol-4-yl)hexyl)piperidin-4-yl)-1H-pyrazole-3-carboxamide], the concentration in solution in the data set “Kinetic solubility assay” (solubility at 1.5 h) was 12.9 µM (≈ 10.9 µg/mL). Also, at CDK9 [1], half-maximal degradation (DC50) was put at 98.9 nM. The molecule also yielded a Dmax at CDK9 [1] of 75.3%. The “logk′80” value in data set [2] was determined as 0.116. The IC50 with MV411 cells (setting [6]) is 79.4 nM; in the data set with MV411 cells (setting [7]) it was 71.3 nM.
In the data set “Kinetic solubility assay”, `O=C1CCC(N2C(=O)c3cccc(OCCCCCCCn4cc(CCCCCCN5CCC(NC(=O)c6n[nH]cc6NC(=O)c6c(Cl)cccc6Cl)CC5)nn4)c3C2=O)C(=O)N1` (centres unmarked) [Compound 4.9a, 4-(2,6-dichlorobenzamido)-N-(1-(6-(1-(7-((2-(2,6-dioxopiperidine-3-yl)-1,3-dioxoisoindolin-4-yl)oxy)heptyl)-1H-1,2,3-triazol-4-yl)hexyl)piperidin-4-yl)-1H-pyrazole-3-carboxamide] yielded a solubility at 1.5 h of 2.38 µM (≈ 2.15 µg/mL). At CDK9 [1], this molecule came in with a DC50 of 74.6 nM and a Dmax of 86.2%. Also, the “logk′80” value in data set [2] came out at 0.184. Moreover, the IC50 in the data set on MV411 cells (setting [6]) is 79.4 nM. In addition, the IC50 with MV411 cells (setting [7]) was found to be 72.8 nM.
With `COc1cc(F)ccc1-c1cc(Nc2cc(CS(C)(=O)=NC(=O)CCc3cn(CCOCCOCCOc4cccc5c4C(=O)N(C4CCC(=O)NC4=O)C5=O)nn3)ccn2)ncc1F` (centres unmarked) [Compound 4.34, 3-(1-(2-(2-(2-((2-(2,6-dioxopiperidin-3-yl)-1,3-dioxoisoindolin-4-yl)oxy)ethoxy)ethoxy)ethyl)-1H-1,2,3-triazol-4-yl)-N-(((2-((5-fluoro-4-(4-fluoro-2-methoxyphenyl)pyridin-2-yl)amino)pyridin-4-yl)methyl)(methyl)(oxo)-16-sulfaneylidene)propenamide], in “Kinetic solubility assay”, the concentration in solution (solubility at 1.5 h) came to 5.2 µM (≈ 4.76 µg/mL). For the same molecule, the DC50 at CDK9 [3] is 70 nM. Moreover, the IC50 with MOLM13 cells [4] (setting [8]) is 60 nM; in the data set with MOLM13 cells [5] (setting [9]), 0.29 µM; in the data set with MOLM13 cells [5] (setting [10]), 1.52 µM. The “logk′80” value in data set [2] was 0.13 and 0.16.
A word on the Solubility: it is how much of the substance goes into solution per volume. High values mean a readily soluble substance, low ones a poorly soluble substance. As for `COc1cc(F)ccc1-c1cc(Nc2cc(CS(C)(=O)=NC(=O)CN3CCN(Cc4cn(C5CN(C(=O)CNc6cccc7c6C(=O)N(C6CCC(=O)NC6=O)C7=O)C5)nn4)CC3)ccn2)ncc1F` (centres unmarked) [Compound 4.49, 2-(4-((1-(1-((2-(2,6-dioxopiperidin-3-yl)-1,3-dioxoisoindolin-4-yl)glycyl)azetidin-3-yl)-1H-1,2,3-triazol-4-yl)methyl)piperazin-1-yl)-N-(((2-((5-fluoro-4-(4-fluoro-2-methoxyphenyl)pyridin-2-yl)amino)pyridin-4-yl)methyl)(methyl) (oxo)-16-sulfaneylidene) acetamide], the “Solubility” value in “Kinetic solubility assay” came out at 58.2 µM (≈ 57 µg/mL). The same molecule came in with a solubility at 1.5 h in the data set “Kinetic solubility assay” of approximately 60 µM (≈ 58.8 µg/mL). At CDK9 [3], this molecule yielded a DC50 of 220 nM. In addition, the IC50 in the data set with MOLM13 cells [4] (setting [8]) was determined as 420 nM; in the data set on MOLM13 cells [4] (Homo sapiens, MOLM-13, text, MOLM13, read-out: potency) it was 420 nM; in the data set with MOLM13 cells [5] (setting [9]), 0.67 µM; with MOLM13 cells [5] (setting [10]) it was 1.24 µM.
As for `COc1cc(F)ccc1-c1cc(Nc2cc(CS(C)(=O)=NC(=O)C3CCCN(Cc4cn(C5CN(C(=O)CNc6cccc7c6C(=O)N(C6CCC(=O)NC6=O)C7=O)C5)nn4)C3)ccn2)ncc1F` (centres unmarked) [Compound 4.62], the “Solubility” value in “Kinetic solubility assay” turned out to be 13.8 µM (≈ 13.3 µg/mL). Besides, it took 150 nM to reach half-maximal degradation on CDK9 [3] (DC50). The IC50 turned out to be 360 nM in the data set with MOLM13 cells [4] (cytotoxicity, MOLM13 cells, read-out: IC50); 0.49 µM with MOLM13 cells [5] (MOLM13, fetal bovine serum, read-out: IC50 (μM) FBS); 1.34 µM in the data set on MOLM13 cells [5] (MOLM13, human serum, read-out: IC50 (μM) HS). In addition, in data set [2], the “logk′80” value is given as 0.11.
As to `COc1cc(F)ccc1-c1cc(Nc2cc(CS(C)(=O)=NC(=O)CCC(=O)N3CC(N4CCC(Cn5cc(COc6cccc7c6C(=O)N(C6CCC(=O)NC6=O)C7=O)nn5)CC4)C3)ccn2)ncc1F` (centres unmarked) [Compound 4.91], the concentration in solution in the data set “Kinetic solubility assay” (solubility at 1.5 h) was 3.8 µM (≈ 3.78 µg/mL). In addition, it took 260 nM to reach half-maximal degradation at CDK9 [3] (DC50). In addition, the IC50 in the data set on MOLM13 cells [4] (setting [8]) is 590 nM. Further, the “logk′80” value in data set [2] stood at 0.09.
